Measurements as given in article PMC4890880 (ACS infectious diseases, 2016).
Where two headings read alike, the source gives them in different places.

What was measured:
[1] = test system: Plasmodium berghei (Pb-Luc) exoerythrocytic-stage parasites; details: for IC50: read-out: PbLuc_IC50
HepG2-A16-CD81EGFP cells = details: for IC50: read-out: Tox_IC50, HepG2 cytotoxicity
[2] = first series of dose-response columns, fraction of control
[3] = first series, fraction of control
[4] = sheet 2nd round, Broad compounds, dose response
[5] = second series of dose-response columns, fraction of control
[6] = second series, fraction of control
[7] = sheet 2nd round, maximal inhibition in dose response
[8] = 2nd round, maximal inhibition in dose series

Structure (SMILES): CCc1csc(N2[C@H](CO)[C@H](c3ccccc3)[C@@H]2CNC)n1 [BRD-K87640608-001-01-8]
- normalized signal at concentration 10 [1, 2]: 0.6764
- normalized signal at concentration 0.000508053 [1, 3]: 0.8428
- normalized signal at concentration 0.00152416 [1, 3]: 0.8502
- normalized signal at concentration 0.00457247 [1, 3]: 0.7149
- normalized signal at concentration 0.0137174 [1, 3]: 0.7931
- normalized signal at concentration 0.0411523 [1, 3]: 0.9257
- normalized signal at concentration 0.123457 [1, 3]: 0.8195
- normalized signal at concentration 0.37037 [1, 3]: 0.9077
- normalized signal at concentration 1.11111 [1, 3]: 1.056
- normalized signal at concentration 3.33333 [1, 3]: 0.9058
- IC50 [1, 4]: > 10 µM
- normalized signal at concentration 10 [1, 5]: 0.7611
- normalized signal at concentration 0.000508053 [1, 6]: 1.024
- normalized signal at concentration 0.00152416 [1, 6]: 0.9242
- normalized signal at concentration 0.00457247 [1, 6]: 1.045
- normalized signal at concentration 0.0137174 [1, 6]: 0.9989
- normalized signal at concentration 0.0411523 [1, 6]: 0.8698
- normalized signal at concentration 0.123457 [1, 6]: 0.9345
- normalized signal at concentration 0.37037 [1, 6]: 1.174
- normalized signal at concentration 1.11111 [1, 6]: 1.035
- normalized signal at concentration 3.33333 [1, 6]: 0.7843
- PbLuc_max_inhibition (%) [1, 7]: 32%
- IC50 (HepG2-A16-CD81EGFP cells; sheet 2nd round): > 10 µM
- Tox_max_inhibition (%) (HepG2-A16-CD81EGFP cells; [7]): 3.76%

Structure (SMILES): C[C@@H]1CCCCO[C@@H](CN(C)S(=O)(=O)c2ccc(F)cc2)[C@@H](C)CN([C@H](C)CO)C(=O)c2cc(N(C)C)ccc2O1 [BRD-K46014293-001-01-6]
- normalized signal at concentration 10 [1, 2]: 1.08
- normalized signal at concentration 0.000508053 [1, 3]: 0.75
- normalized signal at concentration 0.00152416 [1, 3]: 0.85
- normalized signal at concentration 0.00457247 [1, 3]: 0.95
- normalized signal at concentration 0.0137174 [1, 3]: 0.77
- normalized signal at concentration 0.0411523 [1, 3]: 0.97
- normalized signal at concentration 0.123457 [1, 3]: 1.05
- normalized signal at concentration 0.37037 [1, 3]: 1.10
- normalized signal at concentration 1.11111 [1, 3]: 1.01
- normalized signal at concentration 3.33333 [1, 3]: 0.87
- IC50 [1, 4]: > 10 µM
- normalized signal at concentration 10 [1, 5]: 0.93
- normalized signal at concentration 0.000508053 [1, 6]: 1.07
- normalized signal at concentration 0.00152416 [1, 6]: 0.98
- normalized signal at concentration 0.00457247 [1, 6]: 0.95
- normalized signal at concentration 0.0137174 [1, 6]: 0.98
- normalized signal at concentration 0.0411523 [1, 6]: 0.94
- normalized signal at concentration 0.123457 [1, 6]: 1.10
- normalized signal at concentration 0.37037 [1, 6]: 1.03
- normalized signal at concentration 1.11111 [1, 6]: 0.83
- normalized signal at concentration 3.33333 [1, 6]: 0.91
- PbLuc_max_inhibition (%) [1, 7]: 25%
- IC50 (HepG2-A16-CD81EGFP cells; sheet 2nd round): > 10 µM
- Tox_max_inhibition (%) (HepG2-A16-CD81EGFP cells; [7]): 15%

Structure (SMILES): Cc1cccc(-c2ccc(C3[C@@H]4CN(C(=O)CN(C)C)C[C@H]3N4)cc2)c1 (stereo partly drawn) [BRD-K25161260-019-01-1]
- normalized signal at concentration 10 [1, 2]: 0.87
- normalized signal at concentration 0.000508053 [1, 3]: 0.66
- normalized signal at concentration 0.00152416 [1, 3]: 0.79
- normalized signal at concentration 0.00457247 [1, 3]: 0.92
- normalized signal at concentration 0.0137174 [1, 3]: 0.97
- normalized signal at concentration 0.0411523 [1, 3]: 0.91
- normalized signal at concentration 0.123457 [1, 3]: 0.95
- normalized signal at concentration 0.37037 [1, 3]: 0.78
- normalized signal at concentration 1.11111 [1, 3]: 0.60
- normalized signal at concentration 3.33333 [1, 3]: 0.90
- IC50 [1, 4]: > 10 µM
- normalized signal at concentration 10 [1, 5]: 0.87
- normalized signal at concentration 0.000508053 [1, 6]: 0.94
- normalized signal at concentration 0.00152416 [1, 6]: 0.94
- normalized signal at concentration 0.00457247 [1, 6]: 1.11
- normalized signal at concentration 0.0137174 [1, 6]: 1.12
- normalized signal at concentration 0.0411523 [1, 6]: 1.00
- normalized signal at concentration 0.123457 [1, 6]: 1.11
- normalized signal at concentration 0.37037 [1, 6]: 0.98
- normalized signal at concentration 1.11111 [1, 6]: 0.83
- normalized signal at concentration 3.33333 [1, 6]: 0.97
- PbLuc_max_inhibition (%) [1, 7]: 40%
- IC50 (HepG2-A16-CD81EGFP cells; sheet 2nd round): > 10 µM
- Tox_max_inhibition (%) (HepG2-A16-CD81EGFP cells; [7]): 5.5%

Structure (SMILES): CC(C)[C@H]1COCn2nncc2CCCC(=O)N1 [BRD-K14350179-001-01-1]
- normalized signal at concentration 10 [1, 2]: 0.98
- normalized signal at concentration 0.000508053 [1, 3]: 0.82
- normalized signal at concentration 0.00152416 [1, 3]: 0.73
- normalized signal at concentration 0.00457247 [1, 3]: 0.94
- normalized signal at concentration 0.0137174 [1, 3]: 0.81
- normalized signal at concentration 0.0411523 [1, 3]: 0.80
- normalized signal at concentration 0.123457 [1, 3]: 0.97
- normalized signal at concentration 0.37037 [1, 3]: 0.84
- normalized signal at concentration 1.11111 [1, 3]: 0.77
- normalized signal at concentration 3.33333 [1, 3]: 0.76
- IC50 [1, 4]: > 10 µM
- normalized signal at concentration 10 [1, 5]: 1.05
- normalized signal at concentration 0.000508053 [1, 6]: 0.94
- normalized signal at concentration 0.00152416 [1, 6]: 1.04
- normalized signal at concentration 0.00457247 [1, 6]: 1.06
- normalized signal at concentration 0.0137174 [1, 6]: 0.87
- normalized signal at concentration 0.0411523 [1, 6]: 1.07
- normalized signal at concentration 0.123457 [1, 6]: 1.10
- normalized signal at concentration 0.37037 [1, 6]: 1.01
- normalized signal at concentration 1.11111 [1, 6]: 0.86
- normalized signal at concentration 3.33333 [1, 6]: 0.89
- PbLuc_max_inhibition (%) [1, 7]: 27%
- IC50 (HepG2-A16-CD81EGFP cells; sheet 2nd round): > 10 µM
- Tox_max_inhibition (%) (HepG2-A16-CD81EGFP cells; [7]): 5.35%

Structure (SMILES): O=C(NCc1ccc2c(c1)OCO2)[C@@H]1[C@@H](CO)[C@@H]2Cn3c(cccc3=O)[C@H]1N2Cc1cncnc1 [BRD-K31004267-001-01-6]
- normalised signal at concentration 0.000508053 (first series) ([1]; concentration 0.000508053, first series): 0.9455
- normalised signal at concentration 0.000508053 (second series) ([1]; concentration 0.000508053, second series): 0.7294
- normalised signal at concentration 0.00152416 (first series) ([1]; concentration 0.00152416, first series): 0.9922
- normalised signal at concentration 0.00152416 (second series) ([1]; concentration 0.00152416, second series): 1.083
- normalised signal at concentration 0.00457247 (first series) ([1]; concentration 0.00457247, first series): 0.9907
- normalised signal at concentration 0.00457247 (second series) ([1]; concentration 0.00457247, second series): 0.8279
- normalised signal at concentration 0.0137174 (first series) ([1]; concentration 0.0137174, first series): 0.9424
- normalised signal at concentration 0.0137174 (second series) ([1]; concentration 0.0137174, second series): 0.9304
- normalised signal at concentration 0.0411523 (first series) ([1]; concentration 0.0411523, first series): 0.8128
- normalised signal at concentration 0.0411523 (second series) ([1]; concentration 0.0411523, second series): 1.152
- normalised signal at concentration 0.123457 (first series) ([1]; concentration 0.123457, first series): 0.8401
- normalised signal at concentration 0.123457 (second series) ([1]; concentration 0.123457, second series): 1.066
- normalised signal at concentration 0.37037 (first series) ([1]; concentration 0.37037, first series): 1.129
- normalised signal at concentration 0.37037 (second series) ([1]; concentration 0.37037, second series): 0.8899
- normalised signal at concentration 1.11111 (first series) ([1]; concentration 1.11111, first series): 0.9661
- normalised signal at concentration 1.11111 (second series) ([1]; concentration 1.11111, second series): 0.8895
- normalised signal at concentration 3.33333 (first series) ([1]; concentration 3.33333, first series): 0.7673
- normalised signal at concentration 3.33333 (second series) ([1]; concentration 3.33333, second series): 0.9284
- normalised signal at concentration 10 (first series) ([1]; concentration 10, first series of dose columns): 1.039
- normalised signal at concentration 10 (second series) ([1]; concentration 10, second series of dose columns): 0.9564
- IC50 ([1]; sheet "2nd round", Broad compounds, dose response top concentration 10): > 10 µM
- PbLuc_max_inhibition (%) ([1]; sheet "2nd round"): 27%
- IC50 (HepG2-A16-CD81EGFP cells; sheet "2nd round"): > 10 µM
- Tox_max_inhibition (%) (HepG2-A16-CD81EGFP cells; sheet "2nd round"): 14%

Structure (SMILES): C[C@H]1CN([C@@H](C)CO)C(=O)c2cccc(NC(=O)c3ccc(-c4nccs4)cc3)c2O[C@@H]1CN(C)C(=O)Nc1ccc(C(F)(F)F)cc1 [BRD-K03390828-001-01-5]
- PbLuc_max_inhibition (%) [1, 8]: 34%
- normalized signal at 0.000508053 (first series) ([1]; concentration 0.000508053, first replicate series, fraction of control): 0.9377
- normalized signal at 0.000508053 (second series) ([1]; concentration 0.000508053, second replicate series, fraction of control): 0.6684
- normalized signal at 0.00152416 (first series) ([1]; concentration 0.00152416, first replicate series, fraction of control): 0.8855
- normalized signal at 0.00152416 (second series) ([1]; concentration 0.00152416, second replicate series, fraction of control): 0.8915
- normalized signal at 0.00457247 (first series) ([1]; concentration 0.00457247, first replicate series, fraction of control): 0.8808
- normalized signal at 0.00457247 (second series) ([1]; concentration 0.00457247, second replicate series, fraction of control): 0.7577
- normalized signal at 0.0137174 (first series) ([1]; concentration 0.0137174, first replicate series, fraction of control): 0.9989
- normalized signal at 0.0137174 (second series) ([1]; concentration 0.0137174, second replicate series, fraction of control): 0.749
- normalized signal at 0.0411523 (first series) ([1]; concentration 0.0411523, first replicate series, fraction of control): 0.8536
- normalized signal at 0.0411523 (second series) ([1]; concentration 0.0411523, second replicate series, fraction of control): 0.9352
- normalized signal at 0.123457 (first series) ([1]; concentration 0.123457, first replicate series, fraction of control): 0.9414
- normalized signal at 0.123457 (second series) ([1]; concentration 0.123457, second replicate series, fraction of control): 0.925
- normalized signal at 0.37037 (first series) ([1]; concentration 0.37037, first replicate series, fraction of control): 0.9548
- normalized signal at 0.37037 (second series) ([1]; concentration 0.37037, second replicate series, fraction of control): 0.6557
- normalized signal at 1.11111 (first series) ([1]; concentration 1.11111, first replicate series, fraction of control): 1.032
- normalized signal at 1.11111 (second series) ([1]; concentration 1.11111, second replicate series, fraction of control): 0.7805
- normalized signal at 3.33333 (first series) ([1]; concentration 3.33333, first replicate series, fraction of control): 1.162
- normalized signal at 3.33333 (second series) ([1]; concentration 3.33333, second replicate series, fraction of control): 0.8715
- normalized signal at 10 (first series) ([1]; concentration 10, first replicate series, fraction of control): 0.7935
- normalized signal at 10 (second series) ([1]; concentration 10, second replicate series, fraction of control): 0.8747
- IC50 ([1]; 2nd round, Broad DOS compounds, unit not printed (dose series head 10 to 0.000508053)): > 10 µM
- Tox_max_inhibition (%) (HepG2-A16-CD81EGFP cells; [8]): 6.57%
- IC50 (HepG2-A16-CD81EGFP cells; 2nd round, unit inferred): > 10 µM
